# pIC50: −log10 of the molar value.
# Legend:
# Assay type in all cases: cell-based
# SMARCA2 [1] = target: T1, SMARCA2 (Homo sapiens, UniProt P51531); experiment: SMARCA2 degradation in H929 cells by Western blot; set-up: endogenous in cells; details: 16 hours
# Procedure: (§1) Determination of SMARCA2 and SMARCA4 Degradation in H929 Cells by Western Blot:
# (§2) NCI-H929 (ATCC CRL-9068) was plated in 6 well plates using complete RPMI-1640 media. Next day, compounds of present invention were added to cells from 10 mM stocks made in DMSO (Sigma Cat no. D2650). Each concentration of compound was tested with DMSO not exceeding final percentage of 0.3 in the cells. Cells were incubated with the compound for 16 hours followed by harvesting with 1× RIPA lysis buffer (Thermo Fischer, catalogue number #89900) containing protease inhibitor cocktail (Sigma catalogue number #P-8340). Equal amount of protein was loaded on SDS PAGE gel for electrophoresis. Western blot was carried out for detection of either SMARCA2 (Cell signaling technologies, catalogue number #11966) or SMARCA4 antibody (Cell signaling technologies, catalogue number #49360). Beta Actin (Santa Cruz, catalogue number #69879) was used as loading control. Percentage of SMARCA2 or SMARCA4 degradation was calculated using formula % Degradation=100−(normalized band intensity in treated sample/normalized band intensity in DMSO sample)*100.
# (§3) Selected compounds of the present invention were screened in the above mentioned assay procedures for determination of % SMARCA2 and SMARCA4 degradation 100 nM and the results are summarized in below table 30.
# NCI-H929 cells = experiment: Anti proliferative activity in NCI-H929 cell line by Cell Titer Glo assay; details: Homo sapiens, 72 h, 3 days compound incubation, CellTiter Glo, read-out: Anti-proliferative activity IC50 group (NCI-H929 cells)
# Procedure: Determination of Anti Proliferative Activity of Compounds in NCI-H929 and NCI-H838 Cell Lines by Cell Titer Glo® (promega) assay:
# NCI-H929 (ATCC CRL-9068) or NCI-H838 (ATCC CRL-5844) cells were seeded in 96 well plate flat black clear bottom plates (Corning, Cat. No 3904) using complete RPMI-1640 media. Next day, compounds listed in the present invention were added to cells from 10 mM stocks made in DMSO (Sigma Cat no. D2650). Each concentration of compound was tested in triplicate with DMSO concentration at a final percentage not exceeding 0.3 in the cells. After the compound incubation (3 days for H929 and 8 days for H838) assay was terminated using 50 μl of CellTiter Glo® reagent (Promega, Cat. no G7572). CellTiter Glo® Luminescent reagent determines the number of viable cells based on quantitation of ATP present which is an indicator of cell number and metabolic activity. Luminescence readings were taken in Victor-3 instrument. Percent inhibition of proliferation was calculated using formula, % inhibition=100−(luminescence value of test/luminescence value of DMSO control)*100. DMSO control (0%)=Cells in complete media with DMSO; blank=Media alone containing DMSO. IC50 was calculated using graph pad prism software.
# Herein group “A” refers to IC50 value lower than 1 μM, “B” refers to IC50 value between 1-10 μM (both inclusive) and “C” refers to IC50 value higher than 10 μM or less than 50% activity at 10 μM.
# SMARCA4 = target: T2, SMARCA4 (Homo sapiens, UniProt P51532); experiment: SMARCA4 degradation in H929 cells by Western blot; details: 16 hours; for SMARCA4 percent degradation at 0.1 µM: NCI-H929, 100 nM
# T2 construct: endogenous in cells; host or cells: NCI-H929 (ATCC CRL-9068)
# Procedure: as §1, §2, §3
# SMARCA2 [2] = target: T1, SMARCA2; experiment: SMARCA2 degradation in NCI-H838 cells by Western blot; set-up: endogenous in cells; host or cells: NCI-H838 (ATCC CRL-5844); details: 16 hours
# Procedure: Determination of SMARCA2 Degradation in NCI-1H838 Cells by Western Blot:
# NCI-1H838 (ATCC CRL-5844) was plated in 6 well plates using complete RPMI-1640 media. Next day, compounds of present invention were added to cells from 10 mM stocks made in DMSO (Sigma Cat no. D2650). Each concentration of compound was tested with DMSO concentration not exceeding a final percentage of 0.3 in the cells. Cells were incubated with the compound for 16 hours followed by harvesting with 1× RIPA lysis buffer (Thermo Fischer, catalogue number #89900) containing protease inhibitor cocktail (Sigma catalogue number #P-8340). Equal amount of protein was loaded on SIDS PAGE gel for electrophoresis. Western blot was carried out for detection of SMARCA2 with antibody (Cell signaling technologies, catalogue number #11966). Beta Actin (Santa Cruz, catalogue number #69879) was used as loading control. Percentage of SMARCA2 degradation was calculated using formula % degradation=100−(normalized band intensity in treated sample/normalized band intensity in DMSO sample)*100”.
# Selected compounds of the present invention were screened in the above mentioned assay procedures for determination of % SMARCA2 degradation at 100 nM and the results are summarized in below table 31.
# T1 sequence (P51531 whole entry): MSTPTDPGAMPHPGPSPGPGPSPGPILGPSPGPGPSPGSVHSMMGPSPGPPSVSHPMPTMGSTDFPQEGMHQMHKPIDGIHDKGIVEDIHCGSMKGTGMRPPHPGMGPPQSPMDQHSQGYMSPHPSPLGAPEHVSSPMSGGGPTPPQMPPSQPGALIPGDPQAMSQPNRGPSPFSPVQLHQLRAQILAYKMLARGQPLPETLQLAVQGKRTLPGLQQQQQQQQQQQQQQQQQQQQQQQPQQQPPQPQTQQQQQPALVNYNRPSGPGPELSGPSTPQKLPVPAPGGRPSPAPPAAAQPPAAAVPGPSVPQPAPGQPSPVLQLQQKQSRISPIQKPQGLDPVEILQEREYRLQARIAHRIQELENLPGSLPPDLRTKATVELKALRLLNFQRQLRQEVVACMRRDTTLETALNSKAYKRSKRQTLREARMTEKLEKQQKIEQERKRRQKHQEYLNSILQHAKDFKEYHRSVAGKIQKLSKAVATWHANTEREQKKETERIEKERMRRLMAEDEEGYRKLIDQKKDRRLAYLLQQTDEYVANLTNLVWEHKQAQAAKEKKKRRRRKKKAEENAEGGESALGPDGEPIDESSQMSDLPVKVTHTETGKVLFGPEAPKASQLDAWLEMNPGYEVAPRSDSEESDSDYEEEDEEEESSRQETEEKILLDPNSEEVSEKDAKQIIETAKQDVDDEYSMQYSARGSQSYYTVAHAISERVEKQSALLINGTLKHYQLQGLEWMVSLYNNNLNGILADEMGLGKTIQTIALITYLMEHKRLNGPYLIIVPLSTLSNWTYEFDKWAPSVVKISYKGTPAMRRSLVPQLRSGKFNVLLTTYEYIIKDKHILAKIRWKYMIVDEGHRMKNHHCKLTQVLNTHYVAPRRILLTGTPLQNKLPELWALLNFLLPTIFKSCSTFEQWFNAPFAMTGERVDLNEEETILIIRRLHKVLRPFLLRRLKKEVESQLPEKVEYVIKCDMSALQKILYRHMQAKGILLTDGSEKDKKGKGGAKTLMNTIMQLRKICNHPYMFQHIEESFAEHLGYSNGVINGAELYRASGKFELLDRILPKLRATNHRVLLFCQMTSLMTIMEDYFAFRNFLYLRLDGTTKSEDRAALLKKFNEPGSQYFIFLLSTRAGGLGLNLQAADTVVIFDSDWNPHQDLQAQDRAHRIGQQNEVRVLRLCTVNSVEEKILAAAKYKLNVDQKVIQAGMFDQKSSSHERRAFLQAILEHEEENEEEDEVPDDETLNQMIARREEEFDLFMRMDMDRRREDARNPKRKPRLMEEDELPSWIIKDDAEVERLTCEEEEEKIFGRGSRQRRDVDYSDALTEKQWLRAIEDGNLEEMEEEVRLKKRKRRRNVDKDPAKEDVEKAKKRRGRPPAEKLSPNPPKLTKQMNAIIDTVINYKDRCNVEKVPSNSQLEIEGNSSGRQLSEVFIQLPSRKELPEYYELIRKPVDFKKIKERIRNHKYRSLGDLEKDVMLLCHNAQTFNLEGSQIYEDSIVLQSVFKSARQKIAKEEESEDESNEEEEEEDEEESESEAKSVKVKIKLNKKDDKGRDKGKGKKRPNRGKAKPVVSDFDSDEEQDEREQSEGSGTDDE
# T2 sequence (P51532 whole entry): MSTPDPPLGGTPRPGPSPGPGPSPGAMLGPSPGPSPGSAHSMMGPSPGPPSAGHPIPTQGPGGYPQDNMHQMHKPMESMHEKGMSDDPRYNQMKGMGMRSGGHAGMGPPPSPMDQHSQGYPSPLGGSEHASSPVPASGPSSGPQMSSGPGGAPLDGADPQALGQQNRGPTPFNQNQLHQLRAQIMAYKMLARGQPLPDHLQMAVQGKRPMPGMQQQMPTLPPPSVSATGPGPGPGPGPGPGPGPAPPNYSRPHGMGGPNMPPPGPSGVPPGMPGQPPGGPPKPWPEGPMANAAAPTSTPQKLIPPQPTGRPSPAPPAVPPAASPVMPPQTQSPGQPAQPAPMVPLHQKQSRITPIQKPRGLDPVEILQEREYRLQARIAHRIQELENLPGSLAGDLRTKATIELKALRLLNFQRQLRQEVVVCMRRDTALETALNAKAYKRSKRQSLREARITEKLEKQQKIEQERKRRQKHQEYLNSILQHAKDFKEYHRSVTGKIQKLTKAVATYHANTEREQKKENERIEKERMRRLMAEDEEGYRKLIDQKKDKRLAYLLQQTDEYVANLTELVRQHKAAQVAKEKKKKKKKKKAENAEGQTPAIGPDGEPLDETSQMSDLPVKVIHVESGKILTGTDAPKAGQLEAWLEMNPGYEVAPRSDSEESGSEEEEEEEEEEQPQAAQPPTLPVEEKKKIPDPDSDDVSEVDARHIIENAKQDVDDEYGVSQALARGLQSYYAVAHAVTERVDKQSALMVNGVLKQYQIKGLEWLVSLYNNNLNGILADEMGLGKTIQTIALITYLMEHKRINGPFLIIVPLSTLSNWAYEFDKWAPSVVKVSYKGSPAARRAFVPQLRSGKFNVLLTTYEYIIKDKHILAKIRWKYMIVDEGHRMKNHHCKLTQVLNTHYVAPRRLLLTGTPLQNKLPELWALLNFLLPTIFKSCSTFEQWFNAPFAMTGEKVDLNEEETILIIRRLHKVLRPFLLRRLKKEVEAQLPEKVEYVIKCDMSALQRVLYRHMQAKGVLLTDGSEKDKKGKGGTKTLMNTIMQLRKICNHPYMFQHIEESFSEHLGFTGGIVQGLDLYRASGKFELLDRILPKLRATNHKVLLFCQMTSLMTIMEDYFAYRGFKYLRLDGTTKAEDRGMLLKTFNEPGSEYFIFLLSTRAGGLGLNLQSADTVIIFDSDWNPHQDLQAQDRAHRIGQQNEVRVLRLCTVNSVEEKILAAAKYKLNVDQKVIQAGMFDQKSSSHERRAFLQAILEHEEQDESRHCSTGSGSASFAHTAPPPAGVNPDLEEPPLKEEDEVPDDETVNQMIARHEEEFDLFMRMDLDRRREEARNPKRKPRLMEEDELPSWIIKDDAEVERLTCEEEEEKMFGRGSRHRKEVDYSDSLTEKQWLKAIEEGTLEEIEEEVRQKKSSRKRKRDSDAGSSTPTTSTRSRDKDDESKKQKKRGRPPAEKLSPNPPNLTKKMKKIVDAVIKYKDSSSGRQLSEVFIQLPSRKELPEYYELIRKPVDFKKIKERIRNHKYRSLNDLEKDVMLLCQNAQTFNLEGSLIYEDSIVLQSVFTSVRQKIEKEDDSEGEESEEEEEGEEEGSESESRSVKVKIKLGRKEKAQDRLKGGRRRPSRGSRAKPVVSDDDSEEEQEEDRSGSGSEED
Compound,SMARCA2 Percent degradation @ 100 nM (SMARCA2 [1]),pIC50 (NCI-H929 cells),SMARCA4 percent degradation at 0.1 µM (SMARCA4),SMARCA4 Percent degradation @ 100 nM (SMARCA4),SMARCA2 @ 100 nM (% SMARCA2 degradation) (SMARCA2 [2])
"Cc1ncsc1-c1ccc([C@H](C)NC(=O)[C@@H]2C[C@@H](O)CN2C(=O)[C@@H](NC(=O)C(C)C2CCN(c3cc(-c4cccc(F)c4O)nnc3N)CC2)C(C)(C)C)cc1 (single isomer, unassigned) [Compound 84]",58%,–,–,–,–
Cc1ncsc1-c1ccc(CNC(=O)[C@@H]2C[C@@H](O)CN2C(=O)[C@@H](NC(=O)CN2CCN(c3cc(-c4ccccc4O)nnc3N)CC2)C(C)(C)C)cc1 [Compound 39],97%,> 6.00,–,–,–
Nc1nnc(-c2ccccc2O)cc1N1CCN(CC(=O)Nc2cccc3c2C(=O)N(C2CCC(=O)NC2=O)C3=O)CC1 (stereo not drawn) [Compound 41],64%,–,60%,–,–
"CC(=O)O[C@@H]1C[C@@H](C(=O)NCc2ccc(-c3scnc3C)cc2)N(C(=O)[C@@H](NC(=O)CN2CCN(c3cc(-c4ccccc4O)nnc3N)CC2)C(C)(C)C)C1 [Compound 48, (3R,5S)-1-((S)-2-(2-(4-(3-amino-6-(2-hydroxyphenyl)pyridazin-4-yl)piperazin-1-yl)acetamido)-3,3-dimethylbutanoyl)-5-((4-(4-methylthiazol-5-yl)benzyl)carbamoyl)pyrrolidin-3-yl acetate]",5.4%,–,–,28%,–
"Cc1ncsc1-c1ccc(C(NC(=O)[C@@H]2C[C@@H](O)CN2C(=O)[C@@H](NC(=O)CC2CCN(c3cc(-c4cccc(F)c4O)nnc3N)CC2)C(C)(C)C)C(F)(F)F)cc1 (stereo partly drawn) [Compound 76, (2S,4R)-1-((S)-2-(2-(1-(3-amino-6-(3-fluoro-2-hydroxyphenyl)pyridazin-4-yl)piperidin-4-yl)acetamido)-3,3-dimethylbutanoyl)-4-hydroxy-N-(2,2,2-trifluoro-1-(4-(4-methylthiazol-5-yl)phenyl)ethyl)pyrrolidine-2-carboxamide]",90%,–,12%,–,–
"Cc1ncsc1-c1ccc([C@H](C)NC(=O)[C@@H]2C[C@@H](O)CN2C(=O)[C@@H](NC(=O)CN2CCN(c3cc(-c4ccccc4O)nnc3N)CC2)C(C)C)cc1 [Compound 79, (2S,4R)-1-((2-(4-(3-amino-6-(2-hydroxyphenyl)pyridazin-4-yl)piperazin-1-yl)acetyl)-L-valyl)-4-hydroxy-N—((S)-1-(4-(4-methylthiazol-5-yl)phenyl)ethyl)pyrrolidine-2-carboxamide]",99%,> 6.00,99%,–,–
Cc1ncsc1-c1ccc([C@H](C)NC(=O)[C@@H]2C[C@@H](O)CN2C(=O)[C@@H](NC(=O)CC2CCN(c3cc(-c4cccc(F)c4O)nnc3N)CC2)C(C)(C)C)cc1 [Compound 98],88%,> 6.00,99%,–,–
Cc1ncsc1-c1ccc([C@H](C)NC(=O)[C@@H]2C[C@@H](O)CN2C(=O)[C@@H](NC(=O)CC2CCN(c3cc(-c4cc(F)ccc4F)nnc3N)CC2)C(C)(C)C)cc1 [Compound 100],–,–,–,–,9%
Cc1ncsc1-c1ccc([C@H](C)NC(=O)[C@@H]2C[C@@H](O)CN2C(=O)[C@H](C)NC(=O)CN2CCN(c3cc(-c4ccccc4O)nnc3N)CC2)cc1 [Compound 118],20.2%,< 5.00,–,–,–

# The next lines start with the values.
SMARCA2 Percent degradation @ 100 nM (SMARCA2 [1]),pIC50 (NCI-H929 cells),SMARCA4 percent degradation at 0.1 µM (SMARCA4),SMARCA4 Percent degradation @ 100 nM (SMARCA4),SMARCA2 @ 100 nM (% SMARCA2 degradation) (SMARCA2 [2]),Compound
79.6%,> 6.00,–,–,–,"Cc1ncsc1-c1ccc([C@H](C)NC(=O)[C@@H]2C[C@@H](O)CN2C(=O)[C@@H](NC(=O)C(C)N2CCN(c3cc(-c4ccccc4O)nnc3N)CC2)C(C)(C)C)cc1 (single isomer, unassigned) [Compound 57]"
96%,> 6.00,–,–,–,Cc1ncsc1-c1ccc([C@H](C)NC(=O)[C@@H]2C[C@@H](O)CN2C(=O)[C@@H](NC(=O)CCCCCCC(=O)N2CCN(c3cc(-c4ccccc4O)nnc3N)CC2)C(C)(C)C)cc1 [Compound 37]
99%,5.00 to 6.00,17%,–,–,Cc1ncsc1-c1ccc([C@H](C)NC(=O)[C@@H]2C[C@@H](O)CN2C(=O)[C@@H](NC(=O)CCCCCCCCCC(=O)N2CCN(c3cc(-c4ccccc4O)nnc3N)CC2)C(C)(C)C)cc1 [Compound 38]
93%,5.00 to 6.00,82%,–,–,Cc1ncsc1-c1ccc([C@H](C)NC(=O)[C@@H]2C[C@@H](O)CN2C(=O)[C@@H](NC(=O)CN2CCN(c3cc(-c4ccccc4F)nnc3N)CC2)C(C)(C)C)cc1 [Compound 44]
87%,–,–,87%,–,"CC(=O)O[C@@H]1C[C@@H](C(=O)N[C@@H](C)c2ccc(-c3scnc3C)cc2)N(C(=O)[C@@H](NC(=O)CN2CCN(c3cc(-c4ccccc4O)nnc3N)CC2)C(C)(C)C)C1 [Compound 47, (3R,5S)-1-((S)-2-(2-(4-(3-amino-6-(2-hydroxyphenyl)pyridazin-4-yl)piperazin-1-yl)acetamido)-3,3-dimethylbutanoyl)-5-(((S)-1-(4-(4-methylthiazol-5-yl)phenyl)ethyl)carbamoyl)pyrrolidin-3-yl acetate]"
99%,> 6.00,100%,–,–,"Cc1ncsc1-c1ccc([C@H](C)NC(=O)[C@@H]2C[C@@H](O)CN2C(=O)[C@@H](NC(=O)C(C)N2CCN(c3cc(-c4ccccc4O)nnc3N)CC2)C(C)(C)C)cc1 (stereo partly drawn) [Compound 56, (2S,4R)-1-((2S)-2-(2-(4-(3-amino-6-(2-hydroxyphenyl)pyridazin-4-yl)piperazin-1-yl)propanamido)-3,3-dimethylbutanoyl)-4-hydroxy-N—((S)-1-(4-(4-methylthiazol-5-yl)phenyl)ethyl)pyrrolidine-2-carboxamide]"
83%,> 6.00,93%,–,–,Cc1ncsc1-c1ccc([C@H](C)NC(=O)[C@@H]2C[C@@H](O)CN2C(=O)[C@@H](NC(=O)C(C)(C)N2CCN(c3cc(-c4ccccc4O)nnc3N)CC2)C(C)(C)C)cc1 [Compound 87]
100%,> 6.00,38%,–,–,Cc1ncsc1-c1ccc([C@H](C)NC(=O)[C@@H]2C[C@@H](O)CN2C(=O)[C@@H](NC(=O)CCCCCCCCC(=O)N2CCN(c3cc(-c4ccccc4O)nnc3N)CC2)C(C)(C)C)cc1 [Compound 109]
45.4%,5.00 to 6.00,47%,–,–,CO[C@@H]1C[C@@H](C(=O)N[C@@H](C)c2ccc(-c3scnc3C)cc2)N(C(=O)[C@@H](NC(=O)CN2CCN(c3cc(-c4ccccc4O)nnc3N)CC2)C(C)(C)C)C1 [Compound 117]
